In patent publication US20210382058A1, “PATIENT SELECTION FOR TREATMENT OF MYC POSITIVE CANCERS WITH INDENOISOQUINOLINES” (Purdue Research Foundation, priority 2020, published 2021):
Like-named read-outs stand apart in the source and are kept apart here.

Columns and labels:
[1] = tested on: MYC protein expression in MCF-7 breast cancer cells; assay: Western blotting of MYC protein level in MCF-7 cells; assay type: cell-based, human; settings: Homo sapiens, MCF7; western blotting, MCF-7 cells, 0.5, 1, 2, and 4 μM, 24 hours; read-out: MYC Inhibition
In short: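 Immunoblotting with ECL detection quantified MYC, with GAPDH (1:2000) as reference and anti-MYC at 1:1000.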

[2] = target: T1, human topoisomerase I (Homo sapiens, UniProt P11387); settings: relative topoisomerase I inhibition levels, previously determined, six levels (0 - 5, +++++ = 5); cited from earlier work
T1 sequence (P11387 1-765): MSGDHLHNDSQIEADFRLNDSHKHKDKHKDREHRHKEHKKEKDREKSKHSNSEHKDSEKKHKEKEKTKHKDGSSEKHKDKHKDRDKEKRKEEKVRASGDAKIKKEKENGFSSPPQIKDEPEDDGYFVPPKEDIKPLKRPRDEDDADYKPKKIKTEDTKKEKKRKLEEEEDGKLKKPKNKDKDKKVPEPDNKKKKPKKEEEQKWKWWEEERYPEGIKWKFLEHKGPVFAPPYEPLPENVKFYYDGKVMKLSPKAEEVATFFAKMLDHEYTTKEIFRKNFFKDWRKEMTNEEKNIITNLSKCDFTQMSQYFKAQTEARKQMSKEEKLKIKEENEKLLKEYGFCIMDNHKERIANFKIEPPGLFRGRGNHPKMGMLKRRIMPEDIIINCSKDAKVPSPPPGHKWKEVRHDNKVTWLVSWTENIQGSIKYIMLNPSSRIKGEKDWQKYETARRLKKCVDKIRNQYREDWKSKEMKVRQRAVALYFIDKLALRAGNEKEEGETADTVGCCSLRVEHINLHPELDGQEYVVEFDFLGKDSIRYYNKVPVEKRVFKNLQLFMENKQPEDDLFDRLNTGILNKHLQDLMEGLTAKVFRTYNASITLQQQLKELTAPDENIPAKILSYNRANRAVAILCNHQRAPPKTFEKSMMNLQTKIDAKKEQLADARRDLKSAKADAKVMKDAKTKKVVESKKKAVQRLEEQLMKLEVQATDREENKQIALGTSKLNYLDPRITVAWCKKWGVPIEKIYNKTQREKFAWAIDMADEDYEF

[3] = tested on: NCI-60 cancer cell lines; assay: NCI-60 cancer cell line drug screen (GI50, MGM); assay type: cell-based, human; settings: Homo sapiens; for GI50: read-out: Antiproliferative Activities [GI50 (μM)]
Procedure: Cancer cells were incubated with the test compounds at five concentrations ranging from 100 μM to 10 nM for 48 h. […] The approximate average of GI50 values across the entire panel of NCI-60 cancer cell lines for each compound was recorded as the MGM value.

Which results are given for COc1cc2c(cc1O)-c1c(c3ccc([N+](=O)[O-])cc3c(=O)n1CCCn1ccnc1)C2=O [Compound 37]?
minimal effective concentration [1]: 0.5 to 1 µM; Top1 Inhibiton [2]: ++ (medium inhibition, ++, MYC expression inhibited at 2.0 μM, or no clear dose-dependent MYC inhibition); GI50 ([3]; 786-0, Renal Cancer, 786-0): 0.33 µM; GI50 ([3]; ACHN, Renal Cancer, ACHN): 0.31 µM; GI50 ([3]; BT-549, Breast Cancer, BT-549): 0.35 µM; GI50 ([3]; CAKI-1, Renal Cancer, CAKI-1): 0.22 µM; GI50 ([3]; CCRF-CEM, Leukemia, CCRF-CEM): 0.66 µM; GI50 ([3]; COLO 205, Colon Cancer, COLO 205): 7.9 µM; GI50 ([3]; DU-145, Prostate Cancer, DU-145): 0.33 µM; GI50 ([3]; HCC 2998, Colon Cancer, HCC-2998): 37.1 µM; GI50 ([3]; HCT-15, Colon Cancer, HCT-15): > 100 µM; GI50 ([3]; HCT-116, Colon Cancer, HCT-116): 0.74 µM; GI50 ([3]; HL-60, Leukemia, HL-60(TB)): 0.59 µM; GI50 ([3]; HOP-62, Non-Small Cell Lung Cancer, HOP-62): 0.59 µM; GI50 ([3]; HOP-92, Non-Small Cell Lung Cancer, HOP-92): 13.6 µM; GI50 ([3]; HT-29, Colon Cancer, HT29): 4.08 µM; GI50 ([3]; Hs-578T, Breast Cancer, HS 578T): > 100 µM; GI50 ([3]; IGROV-1, Ovarian Cancer, IGROV1): 11.3 µM; GI50 ([3]; K562, Leukemia, K-562): 2.25 µM; GI50 ([3]; KM12, Colon Cancer, KM12): 9.39 µM; GI50 ([3]; LOX IMVI, Melanoma, LOX IMVI): 0.3 µM; GI50 ([3]; Leukemia, SR): 0.03 µM; GI50 ([3]; MCF7, Breast Cancer, MCF7): 0.08 µM; GI50 ([3]; MDA-MB-231, Breast Cancer, MDA-MB-231/ATCC): 18.1 µM; GI50 ([3]; MDA-MB-435, Melanoma, MDA-MB-435): 2.84 µM; GI50 ([3]; MOLT-4, Leukemia, MOLT-4): 0.24 µM; GI50 ([3]; Malme-3M, Melanoma, MALME-3M): 1.79 µM; GI50 ([3]; NCI-H23, Non-Small Cell Lung Cancer, NCI-H23): 0.68 µM; GI50 ([3]; NCI-H322M, Non-Small Cell Lung Cancer, NCI-H322M): 72.6 µM; GI50 ([3]; NCI-H460, Non-Small Cell Lung Cancer, NCI-H460): 0.24 µM; GI50 ([3]; NCI-H522, Non-Small Cell Lung Cancer, NCI-H522): 0.1 µM; GI50 ([3]; OVCAR-3, Ovarian Cancer, OVCAR-3): 1.35 µM; GI50 ([3]; OVCAR-4, Ovarian Cancer, OVCAR-4): 1.41 µM; GI50 ([3]; OVCAR-5, Ovarian Cancer, OVCAR-5): > 100 µM; GI50 ([3]; OVCAR-8, Ovarian Cancer, OVCAR-8): 0.89 µM; GI50 ([3]; Ovarian Cancer, NCl/ADR-RES): > 100 µM; GI50 ([3]; Prostate Cancer, PC-3): 7.22 µM; GI50 ([3]; RPMI-8226, Leukemia, RPMI-8226): 0.7 µM; GI50 ([3]; RXF 393, Renal Cancer, RXF 393): 1.35 µM; GI50 ([3]; SF-268, CNS Cancer, SF-268): 0.27 µM; GI50 ([3]; SF-295, CNS Cancer, SF-295): 0.33 µM; GI50 ([3]; SF-539, CNS Cancer, SF-539): 0.37 µM; GI50 ([3]; SK-MEL-2, Melanoma, SK-MEL-2): 30.8 µM; GI50 ([3]; SK-MEL-5, Melanoma, SK-MEL-5): 1.67 µM; GI50 ([3]; SK-MEL-28, Melanoma, SK-MEL-28): 16.4 µM; GI50 ([3]; SK-OV-3, Ovarian Cancer, SK-OV-3): 0.56 µM; GI50 ([3]; SN12C, Renal Cancer, SN12C): 0.42 µM; GI50 ([3]; SNB-19, CNS Cancer, SNB-19): 12.8 µM; GI50 ([3]; SNB-75, CNS Cancer, SNB-75): 2.97 µM; GI50 ([3]; SW-620, Colon Cancer, SW-620): 0.81 µM; GI50 ([3]; T47D, Breast Cancer, T-47D): 12 µM; GI50 ([3]; TK-10, Renal Cancer, TK-10): 2.54 µM; GI50 ([3]; U-251, CNS Cancer, U251): 0.27 µM; GI50 ([3]; UACC-62, Melanoma, UACC-62): 0.21 µM; GI50 ([3]; UACC-257, Melanoma, UACC-257): 25.3 µM; mean GI50 across NCI-60 panel (MGM) ([3]; average of GI50 values across the entire panel of NCI-60 cancer cell lines): 1.86 µM
